Measurements from patent US10905682B2, “Use of mitochondrial iron chelators for treatment of chronic obstructive pulmonary disease” (Cornell University, priority 2015, dated 2021).

Key:
Assay type in all cases: in vivo, mouse
mice exposed to CS [1] = experiment: CS-induced impairment of mucociliary clearance (MCC), CS-induced bronchitis model
Procedure: (§1) In vivo CS exposures, chemical treatments and diet modifications. Age- and sex-matched mice, starting at 6-12 weeks of age, were selected at random and exposed to total body CS in a stainless steel chamber using a whole-body smoke exposure device (Model TE-10 Teague Enterprises) for 2 hours per day, 5 days per week for 4 weeks or 4-6 months. Age-matched male and female mice were used for all CS exposures. Mice were exposed to CS (mainstream and side stream smoke) from 100 3R4F cigarettes (University of Kentucky), which correlated to an average total particulate matter (TPM) of 150 mg/m^3. For animals subjected to cigarette smoke exposure, early death was used as an exclusion criterion. At the end of the exposure regimen, mice were euthanized by CO2 narcosis, the tracheas cannulated and the lungs inflated with PBS at 25 cm of H2O pressure. The left lung was tied off with a suture, dissected and flash frozen and the right lung fixed in 4% formalin at 4° C. overnight. A proximal portion of the left lung (4 month exposures only) was fixed for transmission electron microscopy (TEM) analysis.
(§2) Mice exposed to CS for 4 weeks had modifications to their dietary iron as follows: Diet 1 (Control Diet) from Harlan Laboratories (TD.94045 AIN-93G), which contained 300-ppm iron. Diet 2 (iron deficient diet) from Harlan Laboratories (TD.10210), which contained 2-6 ppm iron. […] Animals were weighed weekly and the quantity of chow consumed was recorded compared to mice on a normal iron diet. […] Animals were checked daily and the quantity of water consumed compared to control mice. […]
Assessment of Mucociliary Clearance. Mucociliary clearance was quantified using a non-invasive, oropharyngeal aspiration procedure (Lam et al., The Journal of clinical investigation 123(12), 5212-5230 (2013)). […] Whole mouse 3D μ- single-photon emission computed tomography (SPECT) images from 10 minute acquisitions at 0, 1, and 3 hour time points were obtained, reconstructed, blindly analyzed and expressed as the percent removed by mucociliary clearance. […]

mice exposed to CS [2] = experiment: Weight gain of CS-exposed mice treated with DFP; conditions: WT mice, CS 6 or 8 weeks, DFP after 4 weeks of CS, versus CS without DFP; FIG. 6d
Procedure: as §1, with “A proximal portion of the left lung (4 month exposures only) was fixed for transmission electron microscopy (TEM) analysis.” left out
as §2, with “300-ppm” for “300-ppm iron. Diet 2 (iron deficient diet) from Harlan Laboratories (TD.10210), which contained 2-6 ppm”

[3] = system: lung mitochondrial non-heme iron; experiment: Lung mitochondrial non-heme iron in CS-exposed mice; conditions: WT mice, CS 6 or 8 weeks, DFP after 4 weeks of CS, versus CS without DFP; FIG. 6e
Procedure: In vivo CS exposures, chemical treatments and diet modifications. Age- and sex-matched mice, starting at 6-12 weeks of age, were selected at random and exposed to total body CS in a stainless steel chamber using a whole-body smoke exposure device (Model TE-10 Teague Enterprises) for 2 hours per day, 5 days per week for 4 weeks or 4-6 months. Age-matched male and female mice were used for all CS exposures. Mice were exposed to CS (mainstream and side stream smoke) from 100 3R4F cigarettes (University of Kentucky), which correlated to an average total particulate matter (TPM) of 150 mg/m^3. For animals subjected to cigarette smoke exposure, early death was used as an exclusion criterion. […]
as §2, with “300-ppm” for “300-ppm iron. Diet 2 (iron deficient diet) from Harlan Laboratories (TD.10210), which contained 2-6 ppm”
Measurement of mitochondrial membrane potential and Cytochrome C oxidase activity. Mitochondrial-enriched fractions were isolated from the lungs of mice and JC1 uptake measured using the MITOISO1 mitochondrial isolation kit (Sigma Aldrich). […]

mice exposed to CS [4] = experiment: BAL leukocyte counts, BALF protein and IL-33/IL-6 ELISA in CS-induced pulmonary inflammation and injury; conditions: WT mice, 4 weeks CS then DFP during additional 2 or 4 weeks of CS, versus CS without DFP
Procedure: as §1
Mice exposed to CS for 4 weeks had modifications to their dietary iron as follows: Diet 1 (Control Diet) from Harlan Laboratories (TD.94045 AIN-93G), which contained 300-ppm iron. Diet 2 (iron deficient diet) from Harlan Laboratories (TD.10210), which contained 2-6 ppm iron. Diet 3 (iron replete Diet) from Harlan Laboratories (TD.10213), which contained 2% carbonyl iron. Iron diets were exchanged for normal diets upon weaning at 3 weeks of age and used throughout the smoke exposures. Animals were weighed weekly and the quantity of chow consumed was recorded compared to mice on a normal iron diet. Deferiprone or FERRIPROX® solution (1mg/m1) (ApoPharma Inc.) was administered prophylactically in the animals' drinking water for the duration of smoke exposure. Deferiprone was also administered therapeutically in the animals' drinking water initiating therapy after 4 weeks of smoke exposure and continuing therapy for an additional 2-4 weeks. Animals were checked daily and the quantity of water consumed compared to control mice. Water solutions were changed twice weekly.
BALF isolation, cell counts and ELISA. Mice were euthanized by CO2 narcosis, the tracheas cannulated and the lungs lavaged with 0.5 ml increments of ice-cold PBS eight times (4 ml total). BALF was centrifuged at 500×g for 5 minutes. […] The cell pellet was resuspended in 500 μl PBS and leukocytes were counted using a hemocytometer. […] The percentage of macrophages, lymphocytes and polymorphonuclear leukocytes (PMNs) were counted in a total of 300 cells, and absolute numbers of each leukocyte subset were calculated. […]

Structure (SMILES): Cc1c(O)c(=O)ccn1C [DFP, Deferiprone]
- CS-induced MCC impairment, DFP combined with IRP2 deficiency (mice exposed to CS [1]; DFP-treated Irp2-/- mice versus DFP or Irp2-/- alone, CS 1 month, FIG. 6c): better protection from CS-induced MCC impairment than DFP or Irp2−/− alone
- CS-induced MCC impairment (mice exposed to CS [1]; prophylactic: DFP in drinking water for the duration of CS-exposure (1 month), WT mice, FIG. 6c): protected mice from CS-induced MCC impairment
- experimental COPD (overall) (mice exposed to CS [1]; summary statement, CS-exposed mice): alleviated experimental COPD
- weight gain (mice exposed to CS [2]): improved weight gain
- lung mitochondrial iron loading [3]: lower lung mitochondrial iron loading
- BAL total leukocyte counts (pulmonary inflammation) (mice exposed to CS [4]; FIG. 6f): significant reductions
- total BALF protein (acute lung injury) (mice exposed to CS [4]; FIG. 6g): significant reductions
- BALF IL-6 protein concentration (pulmonary inflammation) (mice exposed to CS [4]; FIG. 16e): significant reductions
- BALF IL-33 protein concentration (pulmonary inflammation) (mice exposed to CS [4]; FIG. 16d): significant reductions
